Experimental data published in patent US20180200331A1, “BST-2 AS A THERAPEUTIC TARGET AND DIAGNOSTIC MARKER FOR BREAST CANCER GROWTH AND METASTASIS” (University of Iowa Research Foundation, priority 2015, published 2018).
Read-outs that look alike come from different tables or passages of the source. No end group written: not given here.

Columns and labels:
BST-2 [1] = test: 5-azacytidine treatment, BST-2 RT-qPCR and flow cytometry; assay type: cell-based, human; conditions: 1 uM for 5 days
Experimental: Cell lines of interest were plated at 150,000 cells/well in a 6-well plate and treated with DMSO (vehicle) or 1 μM of 5-azacytidine (5-azaC, Sigma Aldrich) for 5 days. Cells were harvested using 0.25% trypsin-EDTA (Mediatech, Corning, N.Y., USA). Post-incubation, 8 ml of 10% FBS-containing RPMI media (Life Technologies) was added and cells were centrifuged. Media was aspirated and individual cells were resuspended in 2% FBS-containing PBS (Life Technologies). Cell suspension was passed through a […] cell strainer (Falcon). Cells were incubated at 4° C. for 1 hour with APC-conjugated anti-BST-2 primary antibodies or appropriate IgG (Ebioscience) and washed with 1×PBS. After washing, cells were incubated with the fluorescent intercalator-7-aminoactinomycin D (7-AAD) (BioLegend) at 4° C. for 30 minutes to exclude dead cells. Stained cells were quantified using a FACS Calibur flow cytometer (BD). 10,000 events were collected per sample and FACS data were analyzed and plotted using Flowjo software (TreeStar).
(§1) Human normal and breast cancer cell lines were plated at 150,000 cells/well in a 6-well plate and treated with DMSO (vehicle) or 1 μM of 5-azacytidine (5-azaC, Sigma Aldrich) for 5 days. Cells were lifted using Versene (a gentle cell dissociator, Life Technologies), washed with PBS, pelleted and stored at −20° C. until required for analysis. RNA was isolated from frozen cells using the RNeasy mini kit (Qiagen) according to manufacturer's instructions. Equivalent amounts of RNA were treated with DNase (Qiagen). A portion of RNA was subjected to cDNA synthesis (ABI) as previously described. RNA concentration and purity were assessed at 260/280 nm using the spectrophotometer. Using synthesized cDNA, sequence-specific primers were used to amplify BST-2 [4] and GAPDH [13,48]. Claudin-6 was amplified with (F: […], R: […]) primer pair. RT-qPCR was carried out with an ABI 7500 FAST thermal cycler in triplicates as previously described.

Claudin-6 (CLDN6) [2] = test: 5-azacytidine treatment, CLDN6 RT-qPCR; assay type: cell-based, human; conditions: HMLE, MCF-7, SK-BR-3, MDA-MB-231 cells, 1 uM for 5 days
Experimental: as §1

BST-2 [3] = conditions: cited from earlier work
Claudin-6 (CLDN6) [4] = conditions: all cell types, GEO datasets; cited from earlier work
MDA-MB-231 cells = test: Cancer cell to cancer cell adhesion assay on MDA-MB-231 shControl monolayers; assay type: cell-based, human; conditions: monolayers blocked with 200 ng/well for 4 hours; adhesion 4 hours
Experimental: FIG. 46. […] Moreover, MDA-mb-231 SHcONTROL CELLS WERE ADDED TO mda-mb-231 ShBST-2 monolayers (on shBST-2). (Each data point corresponds to six different wells analyzed. Error bars correspond to SEM. Significance was taken at P<0.0005*** or P<0.0001****.
MDA-MB-231 cells expressing shBST-2 or shControl were plated to confluency in a 96-well plate. MDA-MB-231 shControl cells were blocked with water (Vehicle), 200 ng/well of recombinant BST-2 (Sino Biological Inc.), 200 ng/well of B49 peptide or 200 ng of B49nc peptide for 4 hours. Wells were washed twice with PBS and then PKH67 labeled MDA-MB-231 shControl cells were added to wells at 25,000 cells/well. Cells were allowed to adhere for 4 hours at 37° C. Non-adhered cells were washed off with PBS and plates were read at 485 nm/535 nm (excitation/emission) wavelengths using a Tecan Infinite M200 Pro plate reader (Tecan). Values are represented as relative fluorescence intensity (RFI).

Half-life of B49nc = test: Half-life of B49nc
From the text: We generated a truncated form of B49 called “B49nc” having the sequence […] (SEQ ID NO:14).

mammary cancer cells [5] = test: Transformation assay (soft agar colony formation); assay type: cell-based, mouse; conditions: compared to shControl
Experimental: Agar was mixed in Roswell Park Memorial Institute medium (RPMI) with 20% FBS. A total of 500 μl of 0.5% agar was added to 24-well plate and allowed to solidify. Cells were plated at 1,250 cells/well in 500 μl of 0.35% agarose. Some 250 μl of the appropriate growth medium was added on top of the agarose layer. Growth medium was replaced twice a week. Colonies were stained with crystal violet and imaged. Colonies from five different fields were counted and averaged.

E0771 or 4T1 cells = test: Cell invasion assay (Matrigel); assay type: cell-based, mouse; conditions: 24 h
Experimental: The apical chamber of 24-well cell culture inserts (Merck Millipore) were coated with 3 mg/ml of Matrigel (100 μl) (Sigma-Aldrich) and allowed to solidify for 5 hours. A total of 100,000 sh413- or shControl-transduced E0771 or 4T1 cells in serum-free medium were plated on top of the Matrigel layer. Culture medium containing 10% FBS and 5 μg/ml fibronectin (adhesive substrate) (Sigma-Aldrich) was added to the basal chamber of the unit (600 μl) and cells were allowed to invade through the membranous barrier for 24 hours at 37° C. Noninvasive cells were washed off; invasive cells were fixed with 4% PFA, permeabilized with 100% methanol, labeled with Giemsa stain and imaged as described in the previous paragraph. Images were processed using Image J software. Cells from five different fields were counted and averaged.

E0771 cells [6] = test: MTT assay, E0771; assay type: cell-based, mouse
Experimental: A total of 5,000 cells stably expressing sh137, sh413, or shControl were plated in 96-well plates. Cells were then incubated with 5 mg/ml MTT reagent for 3.5 hours followed by addition of MTT solvent (0.1% NP-40 and 4 mM HCl in isopropanol) and rocking for 15 minutes. Absorbance at 590 nm was read using a Tecan Infinite M200 Pro plate reader.

E0771 and 4T1 cells = test: BrdU assay; assay type: cell-based, mouse
Experimental: A total of 5,000 cells were plated in 96-well plates for 24 hours. Bromodeoxyuridine or 5-bromo-2′-deoxyuridine (BrdU) (Calbiochem, Billerica, Mass., USA) assay was carried out according to the manufacturer's instructions. Absorbance at 450 nm was read using a Tecan Infinite plate reader. In parallel, 150,000 cells were plated in 24-well plates for 24 hours. Cells were incubated with BrdU label (1:2000) for 20 hours, treated with a fixative/denaturing solution (30 minutes) and incubated with an anti-BrdU antibody (1:1000) and rat anti-mouse BST-2 antibody (1:200, eBioscience) for 1 hour at room temperature. Cells were washed and incubated with Alexa Fluor 594 anti-rat (Invitrogen, Waltham, Mass., USA) and Alexa Fluor 488 anti-mouse (Invitrogen) secondary antibodies for 30 minutes at room temperature. Cells were stained with 4′,6-diamidino-2-phenylindole (DAPI)-containing Vectashield (Vector Laboratories, Burlingame, Calif., USA) and imaged using a Zeiss 710 confocal microscope (Carl Zeiss, Oberkochen, Germany). Images were processed using Image J software. BrdU label, fixative/denaturing solution, and anti-BrdU antibody were from BrdU (Calbiochem) assay.

E0771 cells [7] = test: Boyden chamber assay; assay type: cell-based, mouse; conditions: 20 hours
Experimental: The apical chamber of 24-well cell culture inserts (Merck Millipore, Billerica, Mass., USA) were seeded with previously starved sh137, sh413 or shControl transduced E0771 cells (150,000) in serum-free medium. Culture medium containing 30% FBS was added to the basal chamber of the unit and cells were allowed to migrate through the membranous barrier for 20 hours at 37° C. Non-migrated cells were washed off, migrated cells were fixed with 4% PFA for 5 minutes, washed twice with 1×PBS, permeabilized with 100% methanol for 25 minutes, labeled with Giemsa stain (for 15 minutes at room temperature) and imaged using a Nikon Eclipse Ti microscope adjusted with an X-cite series 120 LED fluorescence microscope light source and a Nikon digital sight camera. Images were processed using Image J software. Cells from five different fields were counted and averaged.

mammary cancer cells [8] = test: Scratch assay; assay type: cell-based, mouse; conditions: 6 h and 24 h
Experimental: Confluent monolayers of cancer cells plated in 12-well plates were scratched using a pipette tip. Fresh medium was added to the wells. Cells were allowed to migrate for 0, 6 or 24 hours before fixation (4% paraformaldehyde (PFA) for 45 minutes). Fixed cells were washed (1×PBS) and imaged with a Nikon Eclipse Ti microscope adjusted with a Nikon digital sight camera (Nikon, Tokyo, Japan). Images were processed and migrated cells counted using Image J software.

BST-2 [9] = test: shRNA knockdown of BST-2 in E0771 and 4T1 cells; assay type: cell-based, mouse; conditions: E0771 and 4T1 cells stably transduced
From the text: E0771 and 4T1 cells were stably transduced with a construct expressing LV-CMV-firefly luciferase or an empty vector construct using lipofectamine following the manufacturer's instructions (Life Technologies, Carlsbad, Calif., USA). Stable transfectants were then transduced with lentiviral particles carrying BST-2-targeting sh137: CCGGC […] (SEQ ID NO:3); sh413: […] TTCTCAAGCTTTTTG (SEQ ID NO:4); or a non-targeting shControl: […] (SEQ ID NO:5) using a previously described protocol. Stable cells were generated by selection with the appropriate drug. The short hairpin RNA (shRNA) constructs were purchased from Sigma-Aldrich (St Louis, Mo., USA) (SHCLND-NM_198095) and lentiviral particles were generated at the Gene Transfer Vector Core at the University of Iowa.
Cell monolayers were washed with PBS and treated with Versene (Life Technologies). […] Stained cells were quantified using a FACSCalibur flow cytometer (BD Biosciences, San Jose, Calif., USA). […] Fluorescence-activated cell sorting (FACS) data were analyzed by Flowjo software (TreeStar, Ashland, Oreg., USA). […]
Western blots were performed as previously described. […] Band detection and quantification were carried out with the Odyssey Infrared Imaging System (LI-COR Biosciences, Lincoln, Nebr., USA).

With Nc1ncn([C@@H]2O[C@H](CO)[C@@H](O)[C@H]2O)c(=O)n1 [5-AzaC, 5-azacytidine] the “BST-2 levels (RNA and protein)” value (BST-2 [1]; HMLE cells) was “significant increase”, the “BST-2 levels (RNA and protein)” value (BST-2 [1]; MCF-7 cells) was “significant increase” and the “BST-2 mRNA and protein levels” value (BST-2 [1]; MDA-MB-231 cells) was “unchanged”. For the same compound, the “BST-2 mRNA and protein levels” value (BST-2 [1]; SK-BR-3 cells) was “unchanged” and the “CLDN6 mRNA level” value (Claudin-6 (CLDN6) [2]) was “induced in all cell types”.

For Nc1ncn([C@H]2C[C@H](O)[C@@H](CO)O2)c(=O)n1 [DAC, 2′-deoxy-5-azacytidine], the “BST-2 mRNA expression” value (BST-2 [3]; HB2 cells, GEO GSE28976) is given as “increased BST-2 mRNA expression”, the “BST-2 mRNA expression” value (BST-2 [3]; MCF-7 cells, GEO GSE36683) is given as “increased BST-2 mRNA expression” and the BST-2 levels (BST-2 [3]; MDA-MB-231 cells, GEO GSE28976) is given as “did not show any increase”. The BST-2 levels (BST-2 [3]; SK-BR-3 cells, GEO GSE28976) was “did not show any increase” and the “CLDN6 mRNA levels” value (Claudin-6 (CLDN6) [4]) was “induced in all cell types”.

In the case of “TIKANSEACRDGLRAVMECRNVTHLLQQELTEAQKGFQDVEAQAATCNHTVMA (cysteines drawn unpaired) [B49nc]”, the “cancer cell adhesion (relative fluorescence intensity)” value (MDA-MB-231 cells) is reported as “inhibits cancer cell adhesion” and the half-life (Half-life of B49nc) is reported as ~1200 min.

With “sh137: BST-2-targeting shRNA (SEQ ID NO:3), delivered by lentiviral particles (CCGGCGCGATCTTGGTGGTCCTGTTCTCGAGAACAGGACCACCAAGATCGCGTTTTTG)” the “colony numbers in soft agar” value (mammary cancer cells [5]) was “reduced colony numbers”, the “invasion through Matrigel” value (E0771 or 4T1 cells) was “reduced the ability of the cells to invade the basement membrane” and the “cell viability (MTT)” value (E0771 cells [6]) was “equally viable”. The “cell proliferation (BrdU incorporation)” value (E0771 and 4T1 cells) was “no effect on cell proliferation”, the “rate of cell migration (Boyden chamber)” value (E0771 cells [7]) was “significantly reduced rate of cell migration” and the “migration into scratch wound” value (mammary cancer cells [8]) was “showed some migration”. For the same compound, the BST-2 expression (BST-2 [9]) was “reduced BST-2 expression”.
